Experimental data: PubChem BioAssay AID248 (DTP/NCI, 2004)
Inconclusive results and toxic doses are left out.

Test system: L1210 leukemia ip in BDF1 mice, survival T/C
Experiment: NCI In Vivo Anticancer Drug Screen. Data for tumor model L1210 Leukemia (intraperitoneal) in B6D2F1 (BDF1) mice
Conditions: endpoint: mean survival time, higher = longer survival
Outline: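 In this screen, tumor-bearing mice given compound are compared to those given vehicle, and their survival values are reported as a treated-to-control quotient.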

[1] = dose: 100.0 mg/kg/injection, schedule: Q01DX009 (ip), vehicle: Klucel (hydroxypropylcellulose) (HPC)
[2] = dose: 100.0 mg/kg/injection, schedule: Q04DX003 (ip), vehicle: Klucel (hydroxypropylcellulose) (HPC)
[3] = dose: 200.0 mg/kg/injection, schedule: Q01DX009 (ip), vehicle: Klucel (hydroxypropylcellulose) (HPC)
[4] = dose: 200.0 mg/kg/injection, schedule: Q04DX003 (ip), vehicle: Klucel (hydroxypropylcellulose) (HPC)
[5] = dose: 400.0 mg/kg/injection, schedule: Q01DX009 (ip), vehicle: Klucel (hydroxypropylcellulose) (HPC)
[6] = dose: 400.0 mg/kg/injection, schedule: Q04DX003 (ip), vehicle: Klucel (hydroxypropylcellulose) (HPC)
[7] = dose: 100.0 mg/kg/injection, schedule: Q01DX001 (ip), vehicle: saline
[8] = dose: 200.0 mg/kg/injection, schedule: Q01DX001 (ip), vehicle: saline
[9] = dose: 400.0 mg/kg/injection, schedule: Q01DX001 (ip), vehicle: saline
[10] = dose: 100.0 mg/kg/injection, schedule: Q04DX003 (ip), vehicle: saline
[11] = dose: 200.0 mg/kg/injection, schedule: Q04DX003 (ip), vehicle: saline
[12] = dose: 400.0 mg/kg/injection, schedule: Q04DX003 (ip), vehicle: saline
[13] = dose: 50.0 mg/kg/injection, schedule: Q01DX009 (ip), vehicle: Klucel (hydroxypropylcellulose) (HPC)

In the case of `CCOC(=O)CC(=Nc1ccccc1OC)C(=O)OCC`, the T/C [1] is reported as 97 % of control, the T/C [2] is reported as 105 % of control and the T/C [3] is reported as 98 % of control. For the same compound, the T/C [4] was 98 % of control, the T/C [5] was 91 % of control and the T/C [6] was 107 % of control.
`OCCCCOc1ccccc1` was tested, and the T/C [7] was 105 % of control, the T/C [8] was 100 % of control and the T/C [9] was 96 % of control.
In the case of `Cc1c(/C=N/NC(N)=S)[nH]c(=O)[nH]c1=O`, the T/C [7] is reported as 94 % of control, the T/C [8] is reported as 94 % of control and the T/C [9] is reported as 109 % of control.
With `COc1cccc(C=Nc2ccc(I)cc2)c1O.COc1cccc(C=Nc2ccc(I)cc2)c1O.[Co]` the T/C [10] was 94 % of control, the T/C [11] was 94 % of control and the T/C [12] was 109 % of control.
For `COC(=O)c1c(I)cccc1[N+](=O)[O-]`, the T/C [1] was 92 % of control, the T/C [2] was 97 % of control and the T/C [3] was 91 % of control. The T/C [4] was 103 % of control, the T/C [5] was 96 % of control and the T/C [6] was 97 % of control.
For `O=C(N/N=C\c1ccc(Cl)cc1)C(O)C(O)C(O)C(O)CO` (stereo unspecified), the T/C [1] was 100 % of control, the T/C [3] was 91 % of control and the T/C [5] was 89 % of control.
For `N#CCC(=O)c1ccccc1`, the T/C (dose: 12.5 mg/kg/injection, schedule: Q01DX009 (ip), vehicle: Klucel (hydroxypropylcellulose) (HPC)) was 113 % of control, the T/C (dose: 18.75 mg/kg/injection, schedule: Q04DX003 (ip), vehicle: gum acacia) was 106 % of control and the T/C (dose: 25.0 mg/kg/injection, schedule: Q01DX009 (ip), vehicle: Klucel (hydroxypropylcellulose) (HPC)) was 102 % of control. For the same compound, the T/C (dose: 37.5 mg/kg/injection, schedule: Q04DX003 (ip), vehicle: gum acacia) was 108 % of control and the T/C [13] was 104 % of control.
`CCOC(=O)c1cnc(SC)nc1NCc1ccc(Cl)c(Cl)c1` was tested, and the T/C (dose: 100.0 mg/kg/injection, schedule: Q04DX003 (ip), vehicle: saline with Tween-80) was 94 % of control, the T/C (dose: 200.0 mg/kg/injection, schedule: Q04DX003 (ip), vehicle: saline with Tween-80) was 102 % of control and the T/C (dose: 400.0 mg/kg/injection, schedule: Q04DX003 (ip), vehicle: saline with Tween-80) was 96 % of control.
In the case of `O=C(CN1CC1)NCCCCCCCNC(=O)CN1CC1`, the T/C (dose: 6.5 mg/kg/injection, schedule: Q01DX001 (ip), vehicle: carboxymethylcellulose (CMC)) is reported as 120 % of control, the T/C (dose: 7.0 mg/kg/injection, schedule: Q01DX009 (ip), vehicle: carboxymethylcellulose (CMC)) is reported as 94 % of control and the T/C (dose: 9.7 mg/kg/injection, schedule: Q01DX001 (ip), vehicle: carboxymethylcellulose (CMC)) is reported as 123 % of control. For the same compound, the T/C (dose: 11.0 mg/kg/injection, schedule: Q01DX009 (ip), vehicle: carboxymethylcellulose (CMC)) was 100 % of control, the T/C (dose: 16.0 mg/kg/injection, schedule: Q01DX009 (ip), vehicle: carboxymethylcellulose (CMC)) was 94 % of control and the T/C (dose: 25.0 mg/kg/injection, schedule: Q01DX009 (ip), vehicle: carboxymethylcellulose (CMC)) was 103 % of control. For the same compound, the T/C (dose: 33.0 mg/kg/injection, schedule: Q01DX001 (ip), vehicle: carboxymethylcellulose (CMC)) was 154 % of control.
`CCOc1ccccc1N1C(=O)C=CC1=O` was tested, and the T/C (dose: 12.5 mg/kg/injection, schedule: Q04DX002 (ip), vehicle: saline with Tween-80) was 96 % of control and the T/C (dose: 25.0 mg/kg/injection, schedule: Q04DX002 (ip), vehicle: saline with Tween-80) was 109 % of control.
For `CC(=O)OC1CCC2(C)C(C)CC3C(=O)OC32C1` (stereo unspecified), the T/C (dose: 100.0 mg/kg/injection, schedule: Q04DX003 (ip), vehicle: acetone) was 87 % of control and the T/C (dose: 200.0 mg/kg/injection, schedule: Q04DX003 (ip), vehicle: acetone) was 90 % of control.
With `CC(=O)N(C)c1cc2c3c(c1)CCCN3CCC2` the T/C [13] was 104 % of control and the T/C [1] was 98 % of control.
In the case of `CCOC(=O)c1[nH]c2ccsc2c1CN1CCCCC1`, the T/C (dose: 50.0 mg/kg/injection, schedule: Q01DX001 (ip), vehicle: Klucel (hydroxypropylcellulose) (HPC)) is reported as 93 % of control and the T/C (dose: 100.0 mg/kg/injection, schedule: Q01DX001 (ip), vehicle: Klucel (hydroxypropylcellulose) (HPC)) is reported as 101 % of control.
In the case of `Cc1cc(C)c(C(C)(CS(C)(=O)=O)CS(C)(=O)=O)c(C)c1C(C)(CS(C)(=O)=O)CS(C)(=O)=O`, the T/C [1] is reported as 105 % of control, the T/C [3] is reported as 102 % of control and the T/C [5] is reported as 105 % of control.
With `CCCCCCCCCC1=NN(C2=NCCCC2)C(=O)C1` the T/C [2] was 100 % of control, the T/C [4] was 101 % of control and the T/C [6] was 95 % of control.
In the case of `C#CC[N+]12CN3CN(CN(C3)C1)C2`, the T/C [10] is reported as 101 % of control, the T/C [11] is reported as 98 % of control and the T/C [12] is reported as 102 % of control.
